# Like-named read-outs stand apart in the source and are kept apart here.
# Columns and labels:
# [1] = Cell growth inhibition, CellTiter-Glo Luminescent Cell Viability Assay; format: cell-based
# Experimental: Cell growth inhibitory activity of representative menin inhibitors was determined using CellTiter-Glo® Luminescent Cell Viability Assay. Cells were seeded in 384-well white opaque cell culture plates at a density of 2,000 cells/well with serially diluted compounds and incubated at 37° C. in an atmosphere of 95% air and 5% CO2 for 4 days. Cell viability was determined using the CellTiter-Glo® Luminescent Cell Viability Assay Kit (Promega, Madison, Wis.) according to the manufacture's instruction. Briefly, a volume of CellTiter-Glo® Reagent equal to the volume of cell culture medium was added to each well, and then the plates were incubated at room temperature for 10-20 minutes. The luminescent signal was measured using a Tecan Infinite M1000 multimode microplate reader (Tecan, Morrisville, N.C.). The half maximal inhibitory concentration (IC50) was calculated using the GraphPad Prism 5 software (GraphPad Software, La Jolla, Calif.).
# menin protein = menin protein (Homo sapiens (Human), UniProt O00255); test: biochemical; format: binding; settings: FP competitive binding; menin protein 4 nM, FAM-MM2 probe 2 nM; read-out: Menin Binding Affinity IC50
# Chain of menin protein (O00255 whole entry): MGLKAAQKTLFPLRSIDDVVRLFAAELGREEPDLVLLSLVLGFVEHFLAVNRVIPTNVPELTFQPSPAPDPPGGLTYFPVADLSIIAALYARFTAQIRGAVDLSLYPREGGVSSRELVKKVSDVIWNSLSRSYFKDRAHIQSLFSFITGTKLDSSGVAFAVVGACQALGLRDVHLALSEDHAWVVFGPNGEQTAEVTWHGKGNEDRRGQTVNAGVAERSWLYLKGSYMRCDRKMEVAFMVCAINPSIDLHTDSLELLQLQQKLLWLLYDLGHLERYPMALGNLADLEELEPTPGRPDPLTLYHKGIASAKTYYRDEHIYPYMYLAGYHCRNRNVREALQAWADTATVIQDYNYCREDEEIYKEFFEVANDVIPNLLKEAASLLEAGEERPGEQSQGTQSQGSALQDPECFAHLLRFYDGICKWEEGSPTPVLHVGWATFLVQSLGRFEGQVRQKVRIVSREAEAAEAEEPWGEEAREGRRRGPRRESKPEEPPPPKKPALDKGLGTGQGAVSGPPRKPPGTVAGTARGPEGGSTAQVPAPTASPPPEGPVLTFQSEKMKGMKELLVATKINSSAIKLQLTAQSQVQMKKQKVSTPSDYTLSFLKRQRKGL
# Procedure, shortened: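 Test compounds displaced FAM-MM2 (2 nM) from 4 nM menin after 30 min equilibration at room temperature in PBS buffer containing bovine γ-globulin, 4% DMSO and Triton X-100. Binding was followed by fluorescence polarization. Competition curves were fitted by nonlinear regression to give IC50 and Ki.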
# [2] = MOLM-13, 96 h, read-out: Cell Growth Inhibition IC50 (μM) MOLM13, MOLM13 cells, 4 days, CellTiter-Glo
# [3] = MV4-11, 96 h, read-out: Cell Growth Inhibition IC50 (μM) MV4, 11, MV4, 11 cells, 4 days, CellTiter-Glo
# [4] = MOLM-13, 96 h, MOLM13 cells, 4 days, CellTiter-Glo, read-out: Cell Growth Inhibition IC50 (μM) MOLM13
# [5] = MV4-11, 96 h, MV4, 11 cells, 4 days, CellTiter-Glo, read-out: Cell Growth Inhibition IC50 (μM) MV4, 11
SMILES,"IC50 [1, 2]","IC50 [1, 3]",IC50 (menin protein),"IC50 [1, 4]","IC50 [1, 5]"
"CCN1Cc2ccccc2C(C2CCN(CC3CN(c4ccc(S(=O)(=O)c5cnn(C)c5)cc4)C3)CC2)([C@H]2CCC[C@@H]2NC(C)=O)C1 (mixture of isomers) [Cpd. No. 292, rac-N-((1S,2R)-2-(2-ethyl-4-(1-((1-(4-((1-methyl-1H-pyrazol-4-yl)sulfonyl)phenyl)azetidin-3-yl)methyl)piperidin-4-yl)-1,2,3,4-tetrahydroisoquinolin-4-yl)cyclopentyl)acetamide]",1.34 µM,0.13 µM,0.011 µM,–,–
"CC(=O)O[C@H]1CCC[C@@H]1C1(C2CCN(CC3CN(c4ccc(S(=O)(=O)c5ccncc5)cc4)C3)CC2)CN(C)Cc2ccccc21 (mixture of isomers) [compound 206, rac-(1S,2R)-2-(2-methyl-4-(1-((1-(4-(pyridin-4-ylsulfonyl)phenyl)azetidin-3-yl)methyl)piperidin-4-yl)-1,2,3,4-tetrahydroisoquinolin-4-yl)cyclopentyl acetate]",0.411 ± 0.3 µM,0.119 ± 0.048 µM,0.003 µM,–,–
"CNC(=O)N[C@H]1CCC[C@@H]1C1(C2CCN(CC3CN(c4ccc(S(=O)(=O)c5cnn(C)c5)cc4)C3)CC2)CN(C)Cc2ccccc21 (mixture of isomers) [compound 284, rac-1-methyl-3-((1S,2R)-2-(2-methyl-4-(1-((1-(4-((1-methyl-1H-pyrazol-4-yl)sulfonyl)phenyl)azetidin-3-yl)methyl)piperidin-4-yl)-1,2,3,4-tetrahydroisoquinolin-4-yl)cyclopentyl)urea]",> 10 µM,2.59 µM,0.011 µM,–,–
"CC(=O)N[C@H]1CCC[C@@H]1C(C#N)(c1ccccc1)C1CCN(CC2CN(c3ccc(S(=O)(=O)c4ccncc4)cc3)C2)CC1 (mixture of isomers) [compound 263, rac-N-((1S,2R)-2-(cyano(phenyl)(1-((1-(4-(pyridin-4-ylsulfonyl)phenyl)azetidin-3-yl)methyl)piperidin-4-yl)methyl)cyclopentyl) acetamide]",1.4 µM,0.254 µM,0.01 µM,–,–
"CCN1Cc2ccccc2C(C2CCCC2)(C2CCN(CC3CN(c4ccc(S(=O)(=O)c5cnn(CC)c5)cc4)C3)CC2)C1 (stereo not drawn) [compound 103, 4-cyclopentyl-2-ethyl-4-(1-((1-(4-((1-ethyl-1H-pyrazol-4-yl)sulfonyl)phenyl)azetidin-3-yl)methyl)piperidin-4-yl)-1,2,3,4-tetrahydroisoquinoline]",–,–,0.012 µM,2.26 µM,0.49 µM
"O=S(=O)(c1ccc(N2CC(CN3CCC(C4(C5CCCC5)NCCc5ccccc54)CC3)C2)cc1)C1CCCC1 (stereo not drawn) [compound 146, 1-cyclopentyl-1-(1-((1-(4-(cyclopentylsulfonyl)phenyl)azetidin-3-yl)methyl)piperidin-4-yl)-1,2,3,4-tetrahydroisoquinoline]",–,–,0.013 µM,1.9 ± 1.2 µM,0.785 ± 0.247 µM
"CCN1Cc2ccccc2C(C2CCCC2)(C2CCN(CC3CN(c4ccc(S(=O)(=O)c5ccccc5)cc4)C3)CC2)C1 (stereo not drawn) [compound 147, 4-cyclopentyl-2-ethyl-4-(1-((1-(4-(phenylsulfonyl)phenyl)azetidin-3-yl)methyl)piperidin-4-yl)-1,2,3,4-tetrahydroisoquinoline]",–,–,0.009 µM,1.6 ± 0.8 µM,0.956 ± 0.727 µM
"COC(=O)N[C@H]1CCC[C@@H]1C(C#N)(c1ccccc1)C1CCN(CC2CN(c3ccc(S(=O)(=O)c4ccc(C(N)=O)cc4)cc3)C2)CC1 (mixture of isomers) [compound 399, methyl rac-((1S,2R)-2-((1-((1-(4-((4-carbamoylphenyl)sulfonyl)phenyl)azetidin-3-yl)methyl)piperidin-4-yl)(cyano)(phenyl)methyl)cyclopentyl)carbamate]",1.63 µM,0.11 µM,0.007 µM,–,–
"N#CC(c1ccccc1)(C1CCN(CC2CN(c3ccc(S(=O)(=O)c4ccccc4)cc3)C2)CC1)[C@H]1CCC[C@@H]1OC(N)=O (mixture of isomers) [compound 223, rac-(1S,2R)-2-(cyano(phenyl)(1-((1-(4-(phenylsulfonyl)phenyl)azetidin-3-yl)methyl)piperidin-4-yl)methyl)cyclopentyl carbamate]",0.49 µM,0.29 µM,0.014 µM,–,–
"CNC(=O)O[C@H]1CCC[C@@H]1C(Cn1ccnc1C)(c1cccc(F)c1)C1CCN(CC2CN(c3ccc(S(=O)(=O)c4cnn(C)c4)cc3)C2)CC1 (mixture of isomers) [compound 411, rac-(1S,2R)-2-(1-(3-fluorophenyl)-2-(2-methyl-1H-imidazol-1-yl)-1-(1-((1-(4-((1-methyl-1H-pyrazol-4-yl)sulfonyl)phenyl)azetidin-3-yl)methyl)piperidin-4-3-yl)ethyl)cyclopentyl methylcarbamate]",0.016 µM,0.003 µM,0.003 µM,–,–
"CNC(=O)O[C@H]1CCC[C@@H]1C(C#N)(c1ccccc1)C1CCN(CC2CN(c3ccc(S(=O)(=O)c4ccccc4)cc3)C2)CC1 (mixture of isomers) [compound 225, rac-(1S,2R)-2-(cyano(phenyl)(1-((1-(4-(phenylsulfonyl)phenyl)azetidin-3-yl)methyl)piperidin-4-yl)methyl)cyclopentyl methylcarbamate]",0.82 µM,0.24 µM,0.009 µM,–,–
"N#CC(c1ccccc1)(C1CCN(CC2CN(c3ccc(S(=O)(=O)c4ccncc4)cc3)C2)CC1)[C@H]1CCC[C@@H]1OC(N)=O (mixture of isomers) [compound 211, rac-(1S,2R)-2-(cyano(phenyl)(1-((1-(4-(pyridin-4-ylsulfonyl)phenyl)azetidin-3-yl)methyl)piperidin-4-yl)methyl)cyclopentyl carbamate]",0.546 µM,0.302 µM,0.009 µM,–,–
"COC(=O)N[C@H]1CCC[C@@H]1C(C#N)(c1ccccc1)C1CCN(CCC#Cc2ccc(C#N)cc2)CC1 (mixture of isomers) [compound 404, methyl rac-((1S,2R)-2-(cyano(1-(4-(4-cyanophenyl)but-3-yn-1-yl)piperidin-4-yl)(phenyl)methyl)cyclopentyl) carbamate]",> 10 µM,> 10 µM,0.212 µM,–,–
"CCN1Cc2ccccc2C(C2CCCC2)(C2CCN(CC3(F)CN(c4ccc(S(=O)(=O)C5CC5)cc4)C3)CC2)C1 (stereo not drawn) [compound 141, 4-cyclopentyl-4-(1-((1-(4-(cyclopropylsulfonyl)phenyl)-3-fluoroazetidin-3-yl)methyl)piperidin-4-yl)-2-ethyl-1,2,3,4-tetrahy36droisoquinoline]",–,–,0.028 µM,54.7 µM,4.7 µM
"COC(=O)N[C@H]1CCC[C@@H]1C(C#N)(c1ccccc1)C1CCN(CC2CN(c3ccc(S(=O)(=O)C4CC4)cc3)C2)CC1 (mixture of isomers) [compound 319, rac-methyl ((1S,2R)-2-(cyano(1-((1-(4-(cyclopropylsulfonyl)phenyl)azetidin-3-yl)methyl)piperidin-4-yl)(phenyl)methyl)cyclopentyl)carbamate]",2.77 µM,0.33 µM,0.031 µM,–,–
"O=S(=O)(c1ccc(N2CC(CN3CCC(C4(C5CCCC5)NCCc5ccccc54)CC3)C2)cc1)C1CCCCC1 (stereo not drawn) [compound 92, 1-(1-((1-(4-(cyclohexylsulfonyl)phenyl)azetidin-3-yl)methyl)piperidin-4-yl)-1-cyclopentyl-1,2,3,4-tetrahydroisoquinoline]",–,–,0.019 µM,1.6 ± 0.1 µM,0.961 ± 0.384 µM
"O=S(=O)(c1ccc(N2CC(CN3CCC(C4(C5CCCC5)NCCc5ccccc54)CC3)C2)cc1)C1CC1 (stereo not drawn) [compound 135, 1-cyclopentyl-1-(1-((1-(4-(cyclopropylsulfonyl)phenyl)azetidin-3-yl)methyl)piperidin-4-yl)-1,2,3,4-tetrahydroisoquinoline]",–,–,0.025 µM,2.1 ± 1 µM,1.3 ± 0.4 µM
"COC(=O)N[C@H]1CCC[C@@H]1[C@](C#N)(c1ccccc1)C1CCN(CC2CN(c3ccc(S(=O)(=O)C(F)(F)F)cc3)C2)CC1 [Cpd. No. 403, methyl ((1S,2R)-2-((S)-cyano(phenyl)(1-((1-(4-((trifluoromethyl)sulfonyl)phenyl)azetidin-3-yl)methyl)piperidin-4-yl)methyl)cyclopentyl)carbamate]",1.3 µM,0.19 µM,–,–,–
"COC(=O)N[C@H]1CCC[C@@H]1C(C#N)(c1ccccc1)C1CCN(CC2CN(c3ccc(S(=O)(=O)C(F)(F)F)cc3)C2)CC1 (mixture of isomers) [compound 393, methyl rac-((1S,2R)-2-(cyano(phenyl)(1-((1-(4-((trifluoromethyl)sulfonyl)phenyl)azetidin-3-yl)methyl)piperidin-4-yl)methyl)cyclopentyl) carbamate]",0.88 µM,0.25 µM,–,–,–
"COC(=O)N[C@H]1CCC[C@@H]1C(C#N)(c1ccccc1)C1CCN(CC2CN(c3ccc(C#N)cc3)C2)CC1 (mixture of isomers) [compound 400, methyl rac-((1S,2R)-2-(cyano(1-((1-(4-cyanophenyl)azetidin-3-yl)methyl)piperidin-4-yl)(phenyl)methyl)cyclopentyl) carbamate]",–,–,–,6.11 µM,0.83 µM

# From patent US10899738B2 (THE REGENTS OF THE UNIVERSITY OF MICHIGAN, priority 2016, dated 2021)
